What was measured:
HBs antigens (HBsAg) = test: HepAD38 cells HBsAg ELISA; format: cell-based, Hepatitis B virus; settings: read-out: HepAD38, HBsAg (EC50), 7 days total treatment, HBsAg ELISA of cell media
Description: (§1) Example 36 HepAD38 Cells—HBsAg ELISA and Cytotoxicity Assays
(§2) HepAD38 cells are maintained in collagen-coated flasks in cell culture medium (DMEM/F12 containing 10% fetal bovine serum (FBS), GlutaMax-1, penicillin/streptomycin, non-essential amino acids, Na pyruvate, 250 μg/mL geneticin, and 1 μg/mL doxycycline). Compound solutions are prepared in DMSO and compound are serially diluted for final concentrations of 4000, 1000, 250, 62.5, 15.6, 3.91, 0.977, 0.244, 0.061, and 0.015 ηM. The cells are then trypsinized and the cells are plate at 10,000 cells per well. Incubate plates are incubated at 37° C., 5% CO2 for 4 days. Media is replaced with new media with compound treatment. The plates are then incubated at 37° C., 5% CO2 for an additional 3 days for a total treatment time of 7 days. For antiviral response, HBsAg was measured using the HBsAg ELISA kit (International Immuno-diagnostics) with instructions provided. 100 uL of cell media samples was used for ELISA. The absorbance was read on the Spectramax® 384 plate reader (Molecular Devices) at 450 nm. For cell toxicity, the cells were used for CellTiter-Glo® Luminescent Cell Viability Assay reagent (Promega). The luminescence was read on Envision Multilabel Reader (Perkin Elmer). The data was analyzed compared to the DMSO control. % inhibition=(1−(unknown/high control))*100
(§3) The average % inhibition values from duplicate assay plates are then plotted in GraphPad Prism to determine one IC value: Four-parameter logistic curve with equation Y=Bottom+(Top-Bottom)/(1+10^((Log IC50−X)*HillSlope)) pIC50=[…]

[1] = HepAD38 cells cytotoxicity assay (CellTiter-Glo Luminescent Cell Viability Assay); format: cell-based; settings: human, 7 days total treatment, read-out: Cell tox (EC50, ηM)
Description: as §1, §2, §3

HepAD38 cells = test: as above; format: cell-based; settings: 7 days total treatment, read-out: Cell tox (EC50, ηM)
Description: as §1, §2, §3

Which results are given for `COCCCOc1cc2c(nc1C1CC1)-c1cc(=O)c(C(=O)O)cn1C1C2CCC1(C)C` (racemic) [Example 4, 2-Cyclopropyl-3-(3-methoxypropoxy)-7,7-dimethyl-11-oxo-4b,5,6,7,7a,11-hexahydrocyclopenta[f]pyrido[1,2-h][1,7]naphthyridine-10-carboxylic acid (racemic cis)]?
EC50 (HBs antigens (HBsAg)): < 1 nM; EC50 at 7 days [1]: > 4000 nM

For `COCCCOc1cc2c(nc1OC)-c1cc(=O)c(C(=O)O)cn1[C@H](C(C)(C)C)C2` [Example 19, (S)-6-(tert-Butyl)-2-methoxy-3-(3-methoxypropoxy)-10-oxo-6,10-dihydro-5H-pyrido[1,2-h][1,7]naphthyridine-9-carboxylic acid], which EC50 (HBs antigens (HBsAg)) is on record?
The EC50 was less than 1 nM.

And the EC50 at 7 days [1]?
The EC50 at 7 days was greater than 4000 nM.

With `CC(C)C1(C)Cc2cc(OCC3CC3)c(Cl)nc2-c2cc(=O)c(C(=O)O)cn21` (single isomer, unassigned; isomer-2) [Example 27, (2-Chloro-3-(cyclopropylmethoxy)-6-isopropyl-6-methyl-10-oxo-5,10-dihydro-6H-pyrido[1,2-h][1,7]naphthyridine-9-carboxylic acid-Isomer-2] as the molecule, how does the EC50 (HBs antigens (HBsAg)) read?
Its EC50 is greater than 100 nM.

What about the EC50 (HepAD38 cells) of the same molecule?
Its EC50 is greater than 4000 nM.

Which EC50 (HBs antigens (HBsAg)) does the source give for `CC(C)(C)C1Cc2cc(OCC3CC3)c(Cl)nc2-c2cc(=O)c(C(=O)O)cn21` (single isomer, unassigned; isomer 1) [Example 30-A, 6-(tert-Butyl)-2-chloro-3-(cyclopropylmethoxy)-10-oxo-6,10-dihydro-5H-pyrido[1,2-h][1,7]naphthyridine-9-carboxylic acid (isomer 1)] here?
Its EC50 is less than 1 nM.

What about the EC50 (HepAD38 cells) of the same molecule?
The EC50 was greater than 4000 nM.

Which EC50 (HBs antigens (HBsAg)) does the source give for `CC(C)(C)[C@@H]1Cc2cc(OCC3CC3)c(C3CC3)nc2-c2cc(=O)c(C(=O)O)cn21` [Example 14, (S)-6-(tert-Butyl)-2-cyclopropyl-3-(cyclopropylmethoxy)-10-oxo-6,10-dihydro-5H-pyrido[1,2-h][1,7]naphthyridine-9-carboxylic acid] here?
Its EC50 is less than 1 nM.

What about the EC50 at 7 days [1] of the same molecule?
The EC50 at 7 days was greater than 4000 nM.

With `COCCCOc1cc2c(nc1O)-c1cc(=O)c(C(=O)O)cn1[C@H]1[C@@H]2CCC1(C)C` [Example 8, (4bR,7aS)-2-Hydroxy-3-(3-methoxypropoxy)-7,7-dimethyl-11-oxo-4b,5,6,7,7a,11-hexahydrocyclopenta[f]pyrido[1,2-h][1,7]naphthyridine-10-carboxylic acid] as the molecule, how does the EC50 (HBs antigens (HBsAg)) read?
The EC50 was greater than 100 nM.

And the EC50 at 7 days [1]?
Its EC50 at 7 days is greater than 4000 nM.

What does the source list for `COCCCOc1cc2c(nc1C1CC1)-c1cc(=O)c(C(=O)O)cn1C(C)(C(C)C)C2` (single isomer, unassigned; isomer-1) [Example 28, 2-Cyclopropyl-6-isopropyl-3-(3-methoxypropoxy)-6-methyl-10-oxo-5,10-dihydro-6H-pyrido[1,2-h][1,7]naphthyridine-9-carboxylic acid-Isomer-1]?
EC50 (HBs antigens (HBsAg)): < 1 nM; EC50 at 7 days [1]: > 4000 nM

What does the source list for `COCCCOc1cc2c(nc1Cl)-c1cc(=O)c(C(=O)O)cn1[C@@H]1[C@H]2CCC1(C)C` (single isomer, unassigned) [Example 2]?
EC50 (HBs antigens (HBsAg)): 10 to 100 nM; EC50 at 7 days [1]: > 4000 nM

With `COc1nc2c(cc1OCC1CC1)C[C@@H](C(C)(C)C)n1cc(C(=O)O)c(=O)cc1-2` [Example 17, (S)-6-(tert-Butyl)-3-(cyclopropylmethoxy)-2-methoxy-10-oxo-6,10-dihydro-5H-pyrido[1,2-h][1,7]naphthyridine-9-carboxylic acid] as the molecule, how does the EC50 (HBs antigens (HBsAg)) read?
The EC50 was less than 1 nM.

And the EC50 at 7 days [1]?
The EC50 at 7 days was greater than 4000 nM.

With `COCCCOc1cc2c(nc1C)-c1cc(=O)c(C(=O)O)cn1[C@H](C(C)(C)C)C2` [Example 13, (S)-6-(tert-Butyl)-3-(3-methoxypropoxy)-2-methyl-10-oxo-6,10-dihydro-5H-pyrido[1,2-h][1,7]naphthyridine-9-carboxylic acid] as the molecule, how does the EC50 (HBs antigens (HBsAg)) read?
Its EC50 is less than 1 nM.

And the EC50 at 7 days [1]?
Its EC50 at 7 days is greater than 4000 nM.

What does the source list for `COCCCOc1cc2c(nc1O)-c1cc(=O)c(C(=O)O)cn1[C@H](C(C)(C)C)C2` [Example 20, (S)-6-(tert-Butyl)-2-hydroxy-3-(3-methoxypropoxy)-10-oxo-6,10-dihydro-5H-pyrido[1,2-h][1,7]naphthyridine-9-carboxylic acid]?
EC50 (HBs antigens (HBsAg)): > 100 nM; EC50 at 7 days [1]: > 4000 nM

With `COCCCOc1cc2c(nc1C1CC1)-c1cc(=O)c(C(=O)O)cn1C(C)(C(C)C)C2` (single isomer, unassigned; isomer-2) [Example 29, 2-Cyclopropyl-6-isopropyl-3-(3-methoxypropoxy)-6-methyl-10-oxo-5,10-dihydro-6H-pyrido[1,2-h][1,7]naphthyridine-9-carboxylic acid-Isomer-2] as the molecule, how does the EC50 (HBs antigens (HBsAg)) read?
Its EC50 is 10 to 100 nM.

What about the EC50 (HepAD38 cells) of the same molecule?
Its EC50 is greater than 4000 nM.

With `CC(C)(C)[C@@H]1Cc2cc(OCC3CC3)c(O)nc2-c2cc(=O)c(C(=O)O)cn21` [Example 18, (S)-6-(tert-Butyl)-3-(cyclopropylmethoxy)-2-hydroxy-10-oxo-6,10-dihydro-5H-pyrido[1,2-h][1,7]naphthyridine-9-carboxylic acid] as the molecule, how does the EC50 (HBs antigens (HBsAg)) read?
The EC50 was greater than 100 nM.

And the EC50 at 7 days [1]?
Its EC50 at 7 days is greater than 4000 nM.

Which results are given for `COCCCOc1cc2c(nc1Cl)-c1cc(=O)c(C(=O)O)cn1[C@@H]1C(C)(C)CCC21OC` (stereo partly drawn) [Example 7, (7aR)-2-Chloro-4b-methoxy-3-(3-methoxypropoxy)-7,7-dimethyl-11-oxo-4b,5,6,7,7a,11-hexahydrocyclopenta[f]pyrido[1,2-h][1,7]naphthyridine-10-carboxylic acid]?
EC50 (HBs antigens (HBsAg)): 10 to 100 nM; EC50 at 7 days [1]: > 4000 nM

Which EC50 (HBs antigens (HBsAg)) does the source give for `Cc1cc2c(nc1C)CC(C(C)C)n1cc(C(=O)O)c(=O)cc1-2` (stereo not drawn) [Example 33, 6-Isopropyl-2,3-dimethyl-10-oxo-5,10-dihydro-6H-pyrido[2,1-f][1,6]naphthyridine-9-carboxylic acid] here?
The EC50 was greater than 100 nM.

And the EC50 at 7 days [1]?
Its EC50 at 7 days is greater than 4000 nM.

From US12221444B2, “5,6,7,7a-tetrahydrocyclopenta[f]pyrido[1,2-h][1,7]naphthyridin-11(4bH)-one compounds and methods of use” (GLAXOSMITHKLINE INTELLECTUAL, priority 2017, dated 2025)
